Bridge positions count the residues as written; N and C are the ends. Square brackets hold non-standard residues; d marks the D form. Peptide text beside a SMILES is read from it. * marks the point of attachment. 5FAM = O=C1OC2(c3ccc(O)cc3Oc3cc(O)ccc32)c2ccc(C(=O)*)cc21; Phe(3,4-F2) = N[C@@H](Cc1ccc(F)c(F)c1)C(=O)O; Phe(4-F) = N[C@@H](Cc1ccc(F)cc1)C(=O)O; Cha = N[C@@H](CC1CCCCC1)C(=O)O; AEEA = NCCOCCOCC(=O)O
Molecular target: DDE (fibrin-derived polypeptide) (Homo sapiens, UniProt P02671+P02675+P02679)
Sequence (P02671 124-216): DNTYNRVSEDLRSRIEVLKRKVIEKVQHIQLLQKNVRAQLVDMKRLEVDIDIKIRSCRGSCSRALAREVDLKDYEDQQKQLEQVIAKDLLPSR
Sequence (P02675 164-491): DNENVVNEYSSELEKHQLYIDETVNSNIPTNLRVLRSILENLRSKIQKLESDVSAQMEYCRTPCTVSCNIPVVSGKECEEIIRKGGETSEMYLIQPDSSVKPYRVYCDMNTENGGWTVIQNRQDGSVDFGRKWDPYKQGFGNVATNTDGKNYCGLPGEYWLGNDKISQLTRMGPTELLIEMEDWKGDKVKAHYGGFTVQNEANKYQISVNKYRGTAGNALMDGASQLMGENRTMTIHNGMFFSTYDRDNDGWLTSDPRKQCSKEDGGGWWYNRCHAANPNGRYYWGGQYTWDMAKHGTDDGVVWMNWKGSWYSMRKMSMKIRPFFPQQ
Sequence (P02679 114-432): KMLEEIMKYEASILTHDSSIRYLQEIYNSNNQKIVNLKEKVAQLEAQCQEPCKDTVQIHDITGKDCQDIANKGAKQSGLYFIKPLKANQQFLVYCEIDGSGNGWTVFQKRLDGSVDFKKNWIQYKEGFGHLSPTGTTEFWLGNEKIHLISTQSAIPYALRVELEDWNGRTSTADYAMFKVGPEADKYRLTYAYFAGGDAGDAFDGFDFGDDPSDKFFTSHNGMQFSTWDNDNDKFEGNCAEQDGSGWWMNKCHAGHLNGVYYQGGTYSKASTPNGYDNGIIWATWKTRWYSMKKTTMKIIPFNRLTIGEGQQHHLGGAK
Sequence (P02671 36-97): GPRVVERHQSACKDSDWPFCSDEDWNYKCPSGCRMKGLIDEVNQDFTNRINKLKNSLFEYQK
Sequence (P02675 45-152): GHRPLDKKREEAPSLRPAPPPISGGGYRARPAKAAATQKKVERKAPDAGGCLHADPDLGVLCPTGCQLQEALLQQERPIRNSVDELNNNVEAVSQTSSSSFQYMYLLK
Sequence (P02679 27-88): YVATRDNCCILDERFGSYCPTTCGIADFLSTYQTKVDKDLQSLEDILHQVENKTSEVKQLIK
Assay: Direct binding fluorescence polarization (FP) assay using 5-carboxyfluorescein labeled peptides
Conditions: 20 nM CF5-labeled peptide, serial dilutions of DDE, anisotropy read at 485 nm; read-out: KD (μM) Direct Binding (n = 2)
Procedure: Assay of Fibrin Binding Peptides by Direct Binding Fluorescence Polarization (FP) Procedure using 5-Carboxyfluoresein Labeled Peptides
Protocol • 1. Prepare 1 mL of 40 nM solution of 5-carboxyfluorescein-labeled peptide in HEPES dilution buffer (HDB) with 0.01% Tween. • HDB (10 mM HEPES, 150 mM […], 2 mM CaCl2) • 2. Dilute the 40 nM solution to obtain 1 ml of a 20 nM solution of the test 5-carboxyfluorescein-labeled peptide. • 3. Prepare a solution of DDE at a concentration that will be approximately 5-10 fold greater than the expected KD. For the described assay an 8 μM concentration of DDE was prepared. • 4. Mix equal volumes of the DDE solution with the 40 nM peptide solution. • 5. Prepare serial dilutions of DDE in a solution consisting of the binding buffer with 0.01% Tween20 and 20 nM of the 5-carboxyfluorescein-labeled peptide. • 6. Make dilutions as shown in the following table in a Labsystems 384-well microplate and mix by repeated aspiration and dispensing of the solution into the wells. • 7. Centrifuge the plate at 2000 RPM for 5 minutes to remove air pockets in the wells. • 8. Read in Tecan Polarion Plate Reader at 485 nm to obtain the anisotropy value.
The anisotropy (in mP—millipolarization units) vs the logarithm of the concentration (micromoles/liter) of the receptor concentration is graphed. The dissociation constant is obtained at the midpoint of the curve whose extrema are Afree and Abound where Afree is the anisotropy of the free peptide and Abound is the anisotropy of the fully bound peptide. The theory, methods of operation and mathematical analysis is described in, for example, the following reference: Fluorescence Polarization Technical Resource Guide Technical Resource Guide 4th Edn. Invitrogen Corporation•501 Charmany Drive•Madison, Wis. 53719 USA. Particularly, the mathematical analysis of the data and obtaining binding constants is described in Chapter 8: Analysis of FP Binding Data pp 8-2-8-7.

Compound	Kd [µM]
CC(=O)N[C@@H](Cc1c[nH]c2ccccc12)C(=O)N[C@@H](CCC(N)=O)C(=O)N1CCC[C@H]1C(=O)N[C@H]1CSSC[C@@H](C(=O)N[C@@H](Cc2c[nH]c3ccccc23)C(=O)N[C@@H](CC(=O)O)C(=O)N2CCC[C@H]2C(=O)NCC(=O)NCC(=O)NCC(=O)N[C@@H](CCCCNC(=O)c2ccc3c(c2)C(=O)OC32c3ccc(O)cc3Oc3cc(O)ccc32)C(N)=O)NC(=O)[C@H](Cc2ccccc2)NC(=O)[C@H]([C@@H](C)O)NC(=O)[C@H](Cc2c[nH]c3ccccc23)NC(=O)[C@H](CO)NC(=O)[C@H](CCC(=O)O)NC(=O)[C@H](Cc2c[nH]c3ccccc23)NC(=O)[C@@H]2CCCN2C1=O [Seq000-CF5, reference compound] (Ac-WQPCPWESWTFCWDPGGGK(5FAM)-NH2; disulfide 4-12)	0.39
CC(=O)NCC(=O)N1CCC[C@H]1C(=O)N1CCC[C@H]1C(=O)NCC(=O)N[C@@H](Cc1c[nH]c2ccccc12)C(=O)N[C@@H](CCC(N)=O)C(=O)N1CCC[C@H]1C(=O)N[C@H]1CSSC[C@@H](C(=O)N[C@@H](Cc2c[nH]c3ccccc23)C(=O)N[C@@H](CC(=O)O)C(=O)N2CCC[C@H]2C(=O)NCC(=O)NCC(=O)NCC(=O)N[C@@H](CCCCNC(=O)c2ccc3c(c2)C(=O)OC32c3ccc(O)cc3Oc3cc(O)ccc32)C(N)=O)NC(=O)[C@H](Cc2ccccc2)NC(=O)[C@H]([C@@H](C)O)NC(=O)[C@H](Cc2c[nH]c3ccccc23)NC(=O)[C@H](CO)NC(=O)[C@H](CCC(=O)O)NC(=O)[C@H](Cc2c[nH]c3ccccc23)NC(=O)[C@@H]2CCCN2C1=O [Seq014-CF5] (Ac-GPPGWQPCPWESWTFCWDPGGGK(5FAM)-NH2; disulfide 8-16)	0.25
CC(=O)NCC(=O)NCC(=O)N[C@@H](CCCNC(=N)N)C(=O)NCC(=O)N[C@@H](Cc1c[nH]c2ccccc12)C(=O)N[C@@H](CCC(N)=O)C(=O)N1CCC[C@H]1C(=O)N[C@H]1CSSC[C@@H](C(=O)N[C@@H](Cc2c[nH]c3ccccc23)C(=O)N[C@@H](CC(=O)O)C(=O)N2CCC[C@H]2C(=O)NCC(=O)NCC(=O)NCC(=O)N[C@@H](CCCCNC(=O)c2ccc3c(c2)C(=O)OC32c3ccc(O)cc3Oc3cc(O)ccc32)C(N)=O)NC(=O)[C@H](Cc2ccccc2)NC(=O)[C@H]([C@@H](C)O)NC(=O)[C@H](Cc2c[nH]c3ccccc23)NC(=O)[C@H](CO)NC(=O)[C@H](CCC(=O)O)NC(=O)[C@H](Cc2c[nH]c3ccccc23)NC(=O)[C@@H]2CCCN2C1=O [Seq015-CF5] (Ac-GGRGWQPCPWESWTFCWDPGGGK(5FAM)-NH2; disulfide 8-16)	0.29
CC(=O)NCC(=O)N[C@@H](Cc1c[nH]c2ccccc12)C(=O)N[C@@H](CCC(N)=O)C(=O)N1CCC[C@H]1C(=O)N[C@H]1CSSC[C@@H](C(=O)N[C@@H](Cc2c[nH]c3ccccc23)C(=O)N[C@@H](CC(=O)O)C(=O)N2CCC[C@H]2C(=O)NCC(=O)NCC(=O)NCC(=O)N[C@@H](CCCCNC(=O)c2ccc3c(c2)C(=O)OC32c3ccc(O)cc3Oc3cc(O)ccc32)C(N)=O)NC(=O)[C@H](Cc2ccccc2)NC(=O)[C@H]([C@@H](C)O)NC(=O)[C@H](Cc2c[nH]c3ccccc23)NC(=O)[C@H](CO)NC(=O)[C@H](CCC(=O)O)NC(=O)[C@H](Cc2c[nH]c3ccccc23)NC(=O)[C@@H]2CCCN2C1=O [Seq016-CF5] (Ac-GWQPCPWESWTFCWDPGGGK(5FAM)-NH2; disulfide 5-13)	0.23
CC(=O)N[C@@H](CO)C(=O)NCC(=O)N[C@@H](CO)C(=O)NCC(=O)NCCOCCOCC(=O)N[C@@H](Cc1c[nH]c2ccccc12)C(=O)N[C@@H](CCC(N)=O)C(=O)N1CCC[C@H]1C(=O)N[C@H]1CSSC[C@@H](C(=O)N[C@@H](Cc2c[nH]c3ccccc23)C(=O)N[C@@H](CC(=O)O)C(=O)N2CCC[C@H]2C(=O)NCC(=O)NCC(=O)NCC(=O)N[C@@H](CCCCNC(=O)c2ccc3c(c2)C(=O)OC32c3ccc(O)cc3Oc3cc(O)ccc32)C(N)=O)NC(=O)[C@H](Cc2ccccc2)NC(=O)[C@H]([C@@H](C)O)NC(=O)[C@H](Cc2c[nH]c3ccccc23)NC(=O)[C@H](CO)NC(=O)[C@H](CCC(=O)O)NC(=O)[C@H](Cc2c[nH]c3ccccc23)NC(=O)[C@@H]2CCCN2C1=O [Seq017-CF5] (Ac-SGSG[AEEA]WQPCPWESWTFCWDPGGGK(5FAM)-NH2; disulfide 9-17)	0.45
CC(=O)N[C@@H](Cc1c[nH]c2ccccc12)C(=O)N[C@@H](CCC(N)=O)C(=O)N1CCC[C@H]1C(=O)N[C@H]1CSSC[C@@H](C(=O)N[C@@H](Cc2c[nH]c3ccccc23)C(=O)N[C@@H](CC(=O)O)C(=O)N2CCC[C@H]2C(=O)NCC(=O)NCC(=O)NCC(=O)N[C@@H](CCCCNC(=O)c2ccc3c(c2)C(=O)OC32c3ccc(O)cc3Oc3cc(O)ccc32)C(N)=O)NC(=O)[C@H](CC2CCCCC2)NC(=O)[C@H]([C@@H](C)O)NC(=O)[C@H](Cc2c[nH]c3ccccc23)NC(=O)[C@H](CO)NC(=O)[C@H](CCC(=O)O)NC(=O)[C@H](Cc2c[nH]c3ccccc23)NC(=O)[C@@H]2CCCN2C1=O [Seq018-CF5, Ac-WQPC*PWESWT-Cha-C*WDPGGGK(CF5)-NH2] (Ac-WQPCPWESWT[Cha]CWDPGGGK(5FAM)-NH2; disulfide 4-12)	0.2
CC(=O)N[C@@H](Cc1c[nH]c2ccccc12)C(=O)N[C@@H](CCC(N)=O)C(=O)N1CCC[C@H]1C(=O)N[C@H]1CSSC[C@@H](C(=O)N[C@@H](Cc2c[nH]c3ccccc23)C(=O)N[C@@H](CC(=O)O)C(=O)N2CCC[C@H]2C(=O)NCC(=O)NCC(=O)NCC(=O)N[C@@H](CCCCNC(=O)c2ccc3c(c2)C(=O)OC32c3ccc(O)cc3Oc3cc(O)ccc32)C(N)=O)NC(=O)[C@H](Cc2ccc(F)cc2)NC(=O)[C@H]([C@@H](C)O)NC(=O)[C@H](Cc2c[nH]c3ccccc23)NC(=O)[C@H](CO)NC(=O)[C@H](CCC(=O)O)NC(=O)[C@H](Cc2c[nH]c3ccccc23)NC(=O)[C@@H]2CCCN2C1=O [Seq019-CF5, Ac-WQPC*PWESWT-Ffe4-C*WDPGGGK(CF5)-NH2] (Ac-WQPCPWESWT[Phe(4-F)]CWDPGGGK(5FAM)-NH2; disulfide 4-12)	1.02
CC(=O)N[C@@H](Cc1c[nH]c2ccccc12)C(=O)N[C@@H](CCC(N)=O)C(=O)N1CCC[C@H]1C(=O)N[C@H]1CSSC[C@@H](C(=O)N[C@@H](Cc2c[nH]c3ccccc23)C(=O)N[C@@H](CC(=O)O)C(=O)N2CCC[C@H]2C(=O)NCC(=O)NCC(=O)NCC(=O)N[C@@H](CCCCNC(=O)c2ccc3c(c2)C(=O)OC32c3ccc(O)cc3Oc3cc(O)ccc32)C(N)=O)NC(=O)[C@H](Cc2ccc(F)c(F)c2)NC(=O)[C@H]([C@@H](C)O)NC(=O)[C@H](Cc2c[nH]c3ccccc23)NC(=O)[C@H](CO)NC(=O)[C@H](CCC(=O)O)NC(=O)[C@H](Cc2c[nH]c3ccccc23)NC(=O)[C@@H]2CCCN2C1=O [Seq020-CF5, Ac-WQPC*PWESWT-F34fe-C*WDPGGGK(CF5)-NH2] (Ac-WQPCPWESWT[Phe(3,4-F2)]CWDPGGGK(5FAM)-NH2; disulfide 4-12)	0.7
C[C@@H](O)[C@@H]1NC(=O)[C@H](Cc2c[nH]c3ccccc23)NC(=O)[C@H](CO)NC(=O)[C@H](CCC(=O)O)NC(=O)[C@H](Cc2c[nH]c3ccccc23)NC(=O)[C@@H]2CCCN2C(=O)[C@@H](NC(=O)[C@@H]2CCCN2C(=O)[C@H](CCC(N)=O)NC(=O)[C@H](Cc2c[nH]c3ccccc23)NC(=O)CNC(=O)[C@@H](N)CCCNC(=N)N)CSSC[C@@H](C(=O)N[C@@H](Cc2c[nH]c3ccccc23)C(=O)N[C@@H](CC(=O)O)C(=O)N2CCC[C@H]2C(=O)NCC(=O)NCC(=O)NCC(=O)N[C@@H](CCCCNC(=O)c2ccc3c(c2)C(=O)OC32c3ccc(O)cc3Oc3cc(O)ccc32)C(N)=O)NC(=O)[C@H](Cc2ccccc2)NC1=O [Seq022-CF5] (H-RGWQPCPWESWTFCWDPGGGK(5FAM)-NH2; disulfide 6-14; N-terminus assumed)	0.28
C[C@@H](O)[C@@H]1NC(=O)[C@H](Cc2c[nH]c3ccccc23)NC(=O)[C@H](CO)NC(=O)[C@H](CCC(=O)O)NC(=O)[C@H](Cc2c[nH]c3ccccc23)NC(=O)[C@@H]2CCCN2C(=O)[C@@H](NC(=O)[C@@H]2CCCN2C(=O)[C@H](CCC(N)=O)NC(=O)[C@H](Cc2c[nH]c3ccccc23)NC(=O)[C@@H](N)CCCNC(=N)N)CSSC[C@@H](C(=O)N[C@@H](Cc2c[nH]c3ccccc23)C(=O)N[C@@H](CC(=O)O)C(=O)N2CCC[C@H]2C(=O)NCC(=O)NCC(=O)NCC(=O)N[C@@H](CCCCNC(=O)c2ccc3c(c2)C(=O)OC32c3ccc(O)cc3Oc3cc(O)ccc32)C(N)=O)NC(=O)[C@H](Cc2ccccc2)NC1=O [Seq023-CF5] (H-RWQPCPWESWTFCWDPGGGK(5FAM)-NH2; disulfide 5-13; N-terminus assumed)	0.11
